Measurements reported in patent US12128257B2, “Extracts of Isochrysis sp” (SYMRISE AG, priority 2008, dated 2024).

Test system: hair follicles
Experiment: Hair follicle growth (elongation) in organ culture of scalp hair follicles, image analysis
Format: cell-based, human
Details: Table 7, day 10 of culture, pooled from two donors
Description: For each experiment and the control 9-12 follicles were used, plated at the density of 3 hair follicles/well in 24 well plates. Hair follicles were taken from the head of the scalp and transferred for cultivation in sterile 24 well plates using a modified Williams' Medium E. Cultivation took place for nine days, following 18 h of pre-incubation performed in order to select hair follicles suitable to be maintained in culture. Only those follicles showing a good vital stage and a growth of not less than 0.2 mm were used.
The growth performances observed in the treated hair follicles were compared to a control group, which was cultured in the same culture medium but free from extract supplement.
[…] In order to obtain these supplemented media, the required quantity of dir-MeOH extract was submitted to solvent evaporation and then redissolved again in DMSO. The final concentration of this DMSO-solved extract has been adjusted in order to supplement the experimental media with the desired extract quantity, obtaining at same time a final concentration in DMSO equal to 0.05%. The same concentration of DMSO has also been used in the medium for the culture of the control group.
The experiments were terminated after 10 days of cultivation (9 days of treatment). The growth of the hair follicles was studied by microphotography and subsequently determined by image analysis. All the hair follicles were photographed every two days.
1, were the hair follicle elongation is expressed as percentage ratio between the experimental groups and the untreated control: […]

CC/C=C\C/C=C\C/C=C\C/C=C\C/C=C\C/C=C\CCC(=O)O [DHA, docosahexaenoic acid]
Growth (%): Elongation in [%] of the control performance (0.003 μg/ml): 99.5% | Growth (%): Elongation in [%] of the control performance (0.03 μg/ml): 93.5% | Growth (%): Elongation in [%] of the control performance (0.3 μg/ml): 89.3%
